According to the supplement of paper PMC10307832:

Columns and labels:
Assay in all cases: relative viability (nuclei count vs DMSO), 5 days (fraction); higher = more cells survive
[1] = compound: C=C(c1ccc(C(=O)O)cc1)c1cc2c(cc1C)C(C)(C)CCC2(C)C [Bexarotene] + CCNC(=O)c1noc(-c2cc(C(C)C)c(O)cc2O)c1-c1ccc(CN2CCOCC2)cc1 [Luminespib] (partner 0.01 µM)
Summary of the method: (§1)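 One day after seeding in 1536-well plates, lung cancer cell lines were dosed by pin tool. Dosing was either single-drug or a fixed anchor-drug dose plus five library-drug doses (not always all listed) in √10 steps. After 5 days, nuclei were stained in one fix-and-stain step and counted on 4× images, and relative viability is the nuclei count of treated wells over that of vehicle wells, given as the median of duplicate plates.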

[2] = compound: C=C(c1ccc(C(=O)O)cc1)c1cc2c(cc1C)C(C)(C)CCC2(C)C [Bexarotene] + CC(C)C[C@H](NC(=O)[C@H](Cc1ccccc1)NC(=O)c1cnccn1)B(O)O [Bortezomib] (partner 0.002 µM)
Summary of the method: as §1

[3] = compound: C=C(c1ccc(C(=O)O)cc1)c1cc2c(cc1C)C(C)(C)CCC2(C)C [Bexarotene] + Cc1nc(Nc2ncc(C(=O)Nc3c(C)cccc3Cl)s2)cc(N2CCN(CCO)CC2)n1 [Dasatinib] (partner 0.075 µM)
Summary of the method: as §1

[4] = compound: C=C(c1ccc(C(=O)O)cc1)c1cc2c(cc1C)C(C)(C)CCC2(C)C [Bexarotene] + CC(=O)c1c(C)c2cnc(Nc3ccc(N4CCNCC4)cn3)nc2n(C2CCCC2)c1=O [Palbociclib] (partner 0.5 µM)
Summary of the method: as §1

| Cell Line | relative viability ([1]; first compound 0.08 µM) | relative viability ([1]; first compound 0.253 µM) | relative viability ([1]; first compound 0.8 µM) | relative viability ([1]; first compound 2.53 µM) | relative viability ([1]; first compound 8 µM) | relative viability ([2]; first compound 0.08 µM) | relative viability ([2]; first compound 0.253 µM) | relative viability ([2]; first compound 0.8 µM) | relative viability ([2]; first compound 2.53 µM) | relative viability ([2]; first compound 8 µM) | relative viability ([3]; first compound 0.08 µM) | relative viability ([3]; first compound 0.253 µM) | relative viability ([3]; first compound 0.8 µM) | relative viability ([3]; first compound 2.53 µM) | relative viability ([3]; first compound 8 µM) | relative viability ([4]; first compound 0.08 µM) | relative viability ([4]; first compound 0.253 µM) | relative viability ([4]; first compound 0.8 µM) | relative viability ([4]; first compound 2.53 µM) | relative viability ([4]; first compound 8 µM) |
| --- | --- | --- | --- | --- | --- | --- | --- | --- | --- | --- | --- | --- | --- | --- | --- | --- | --- | --- | --- | --- |
| NCI-H1792 | 0.519 | 0.406 | 0.49 | 0.361 | 0.286 | 0.871 | 0.981 | 0.809 | 0.761 | 0.681 | 0.82 | 0.769 | 0.764 | 0.786 | 0.689 | 0.706 | 0.611 | 0.616 | 0.588 | 0.607 |
| NCI-H1355 | 0.831 | 0.714 | 0.668 | 0.631 | 0.716 | 1.17 | 1.35 | 1.21 | 1.32 | 1.14 | 0.744 | 0.814 | 0.55 | 0.627 | 0.707 | 0.422 | 0.387 | 0.384 | 0.446 | 0.434 |
| SW 1573 | 0.252 | 0.216 | 0.222 | 0.615 | 0.242 | 0.896 | 0.923 | 0.955 | 0.803 | 0.763 | 0.593 | 0.467 | 0.402 | 0.301 | 0.41 | 0.362 | 0.327 | 0.378 | 0.354 | 0.288 |
| NCI-H2347 | 0.507 | 0.255 | – | 0.379 | 0.22 | 1.2 | 0.904 | 0.818 | 0.664 | 0.835 | 0.358 | 0.323 | – | 0.259 | 0.244 | 0.465 | 0.413 | 0.343 | 0.368 | 0.426 |
| LCLC-97TM1 | 0.827 | 0.849 | 0.778 | 0.769 | 0.822 | 0.58 | 0.625 | 0.468 | 0.126 | 0.575 | 1.05 | 0.795 | 0.815 | 0.773 | 0.822 | 0.211 | 0.245 | 0.168 | 0.177 | 0.185 |
| EMC-BAC-2 | 1.28 | 1.23 | 1.23 | 1.12 | 1.11 | 1.24 | 1.03 | 0.97 | 1.05 | 1.03 | 0.328 | 0.316 | 0.294 | 0.309 | 0.334 | 0.538 | 0.529 | 0.508 | – | 0.502 |
| NCI-H1975 | 0.171 | 0.159 | 0.201 | 0.154 | 0.215 | 0.414 | 0.376 | 0.452 | 0.428 | 0.346 | 0.468 | 0.335 | 0.391 | 0.335 | 0.375 | 0.667 | 0.578 | 0.575 | 0.616 | 0.547 |
| BEN | 0.336 | 0.247 | 0.409 | 0.078 | 0.252 | 0.905 | 0.599 | 0.672 | 0.496 | 0.649 | 0.295 | 0.3 | 0.326 | 0.271 | 0.278 | 0.444 | 0.467 | 0.442 | 0.456 | 0.502 |
| NCI-H23 | 0.229 | 0.201 | 0.238 | 0.234 | 0.204 | 1.1 | 1.03 | 1.02 | 0.9 | 0.962 | 0.944 | 0.594 | 0.635 | 0.884 | 0.691 | 0.554 | 0.567 | 0.571 | 0.555 | 0.543 |
| NCI-H520 | 0.236 | 0.22 | 0.229 | 0.22 | 0.226 | 0.805 | 0.588 | 0.518 | 0.385 | 0.534 | 0.223 | 0.211 | 0.204 | 0.215 | 0.187 | 0.271 | 0.182 | 0.198 | 0.229 | 0.207 |
| CAL-12T | 0.218 | 0.224 | 0.419 | 0.322 | 0.297 | 1.02 | – | 0.849 | – | 0.816 | 0.296 | 0.327 | 0.332 | 0.302 | 0.271 | 0.442 | 0.465 | 0.342 | 0.417 | 0.441 |
| EPLC-272H | 0.304 | 0.332 | 0.252 | 0.303 | 0.258 | 0.968 | 0.875 | 0.538 | 0.776 | 0.822 | 0.388 | 0.312 | 0.369 | 0.352 | 0.383 | 0.313 | 0.358 | 0.312 | 0.314 | 0.354 |
| LCLC-103H | 1.08 | 0.935 | 0.885 | 1.04 | 0.846 | 1.07 | 1.03 | 0.863 | 1.11 | 1.23 | 0.489 | 0.567 | 0.419 | 0.525 | 0.49 | 0.495 | 0.544 | 0.453 | 0.476 | 0.475 |
| NCI-H2405 | 0.775 | 0.663 | 0.539 | 0.703 | 0.625 | 1.07 | 0.945 | 0.836 | 0.896 | 0.92 | 0.219 | 0.247 | 0.136 | 0.144 | 0.188 | 0.541 | 0.557 | 0.44 | 0.565 | 0.508 |
| HCC-15 | 0.192 | 0.314 | 0.321 | 0.353 | 0.231 | 1.06 | 1.13 | 1.05 | 0.959 | 1.01 | 0.695 | 0.741 | 0.648 | 0.647 | 0.683 | 0.779 | 0.925 | 0.753 | 0.794 | 0.726 |
| PC-3 [JPC-3] | 0.645 | 0.618 | 0.635 | 0.775 | 0.616 | 0.9 | 0.843 | 0.68 | 0.858 | 0.771 | 0.77 | 0.928 | 0.833 | 0.974 | 0.867 | 0.556 | 0.514 | 0.492 | 0.471 | 0.493 |
| HARA | 0.722 | 0.769 | 0.658 | 0.767 | 0.709 | 1.16 | 1.04 | 1.02 | 1.02 | 1.03 | 0.324 | 0.268 | 0.332 | 0.407 | 0.567 | 0.269 | 0.239 | 0.243 | 0.294 | 0.277 |
